The assay concerns the target human Cat S (Homo sapiens (Human), UniProt P25774). The assay can be described thus: Cathepsin enzyme inhibition assay (fluorogenic peptide substrate). In kind it is biochemical. The following applies: human Cat S, enzyme 1 nM, substrate Z-Val-Val-Arg-AMC, pH 6.5; read-out: CatS IC50. Here is the method: Cathepsin Enzyme Inhibition Assay
Enzyme activity is measured by observing the increase in fluorescence intensity caused by cleavage of a peptide substrate containing a fluorophore whose emission is quenched in the intact peptide.
Assay buffer: 100 mM potassium phosphate pH 6.5, EDTA-Na 5 mM, Triton X-100 0.001%, DTT 5 mM.
Enzymes (all at 1 nM): human and mouse Cathepsin S, Cat K, Cat B, Cat L.
Substrate ([…], except for Cat K which uses Z-Leu-Arg-AMC (both from Bachem).
Excitation 360 nm, Emission 465 nm.
Enzyme is added to the substance dilutions in 96-well microtitre plates and the reaction is started with substrate. […] IC50 are calculated by standard methods.
Inhibition of human Cat S, mouse Cat S, human Cat K, mouse Cat K, human Cat B, mouse Cat B, human Cat L and mouse Cat L have been measured separately.

Chain of human Cat S (P25774 115-331): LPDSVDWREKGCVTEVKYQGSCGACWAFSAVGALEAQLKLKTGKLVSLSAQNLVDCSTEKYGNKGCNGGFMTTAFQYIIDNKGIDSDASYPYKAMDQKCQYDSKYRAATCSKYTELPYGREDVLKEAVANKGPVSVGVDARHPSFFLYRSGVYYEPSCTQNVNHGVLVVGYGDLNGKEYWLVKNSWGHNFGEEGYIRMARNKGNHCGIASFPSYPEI

Take `Cc1[nH]c(-c2ccc(S(C)(=O)=O)cc2)nc1CN1CCC(N2Cc3ccccc3NC2=O)CC1` [Example 74, 3-{1-[2-(4-Methanesulfonyl-phenyl)-5-methyl-1H-imidazol-4-ylmethyl]-piperidin-4-yl}-3,4-dihydro-1H-quinazolin-2-one]: the IC50 was found to be 94 nM.

With `Cc1[nH]c(-c2ccc(S(=O)(=O)Cc3ccccc3)cc2)nc1CN1CCC(n2c(=O)n(C)c3ccccc32)CC1` [Example 81, 1-Methyl-3-{1-[5-methyl-2-(4-phenylmethanesulfonyl-phenyl)-1H-imidazol-4-ylmethyl]-piperidin-4-yl}-1,3-dihydro-benzoimidazol-2-one], the IC50 came out at 170 nM.

Turning to `Cc1[nH]c(-c2ccc(C(F)(F)F)cc2)nc1CN1CCC(n2c(=O)[nH]c3ccc(N4CCCC4)cc32)CC1` [Example 9, 1-{1-[5-Methyl-2-(4-trifluoromethyl-phenyl)-1H-imidazol-4-ylmethyl]-piperidin-4-yl}-6-pyrrolidin-1-yl-1,3-dihydro-benzoimidazol-2-one], the IC50 turned out to be 190 nM.

As to `Cc1c(CN2CCC(n3c(=O)n(C)c4ccccc43)CC2)nc(-c2ccc(C(F)(F)F)cc2)n1C` [Example 70, 1-{1-[1,5-Dimethyl-2-(4-trifluoromethyl-phenyl)-1H-imidazol-4-ylmethyl]-piperidin-4-yl}-3-methyl-1,3-dihydro-benzoimidazol-2-one], the IC50 worked out at 245 nM.

As for `O=C1Nc2ccc(Br)cc2CN1C1CCN(Cc2cnc(-c3ccc(C(F)(F)F)cc3)[nH]2)CC1` [Example 17, 6-Bromo-3-[1-[[2-[4-(trifluoromethyl)phenyl]-1H-imidazol-5-yl]methyl]-4-piperidyl]-1,4-dihydroquinazolin-2-one], the IC50 is 195 nM.

Turning to `Cc1[nH]c(-c2ccc(C(F)(F)F)cc2)nc1CN1CCC(c2c[nH]c3ncccc23)CC1` [Example 38, 3-{1-[5-Methyl-2-(4-trifluoromethyl-phenyl)-1H-imidazol-4-ylmethyl]-piperidin-4-yl}-1H-pyrrolo[2,3-b]pyridine], the IC50 came out at 470 nM.

Regarding `Cc1[nH]c(-c2ccc(C(F)(F)F)c(Cl)c2)nc1CN1CCC(n2c(=O)n(C)c3ccccc32)CC1` [Example 39, 1-{1-[2-(3-Chloro-4-trifluoromethyl-phenyl)-5-methyl-1H-imidazol-4-ylmethyl]-piperidin-4-yl}-3-methyl-1,3-dihydro-benzoimidazol-2-one], the IC50 came out at 242 nM.

As to `Cc1[nH]c(-c2ccc(C(F)(F)F)cc2)nc1CN1CCC(c2noc3cc(F)ccc23)CC1` [Example 37, 6-Fluoro-3-{1-[5-methyl-2-(4-trifluoromethyl-phenyl)-1H-imidazol-4-ylmethyl]-piperidin-4-yl}-benzo[d]isoxazole], the IC50 was determined as 595 nM.

Turning to `Cc1[nH]c(-c2ccc(C(F)(F)F)cc2)nc1CN1CCC(n2c(=O)n(CCS(C)(=O)=O)c3cc(Cl)ccc32)CC1` [Example 35, 5-Chloro-3-(2-methanesulfonyl-ethyl)-1-{1-[5-methyl-2-(4-trifluoromethyl-phenyl)-1H-imidazol-4-ylmethyl]-piperidin-4-yl}-1,3-dihydro-benzoimidazol-2-one], the IC50 was found to be 257 nM.

What is called IC50 is the concentration that gives 50% inhibition.

For the origin of these results see patent US10172843B2, “Piperidine derivatives” (Hoffmann-La Roche Inc., priority 2014, dated 2019).
